Reference: the NIST ThermoML archive (doi:10.1021/je050060q)

Assay: xn = mol fraction of the nth substance listed
Conditions: 101.3 kPa, Liquid; for mass density: Pycnometric method

CCCCCCCCCCCCCCCC [hexadecane] + CCCCCC
Conditions | mass density [kg/m3] | speed of sound [m/s]
293.15 K, x2 = 0.1 | 768.1 | 1341
293.15 K, x2 = 0.2 | 762.36 | 1327
293.15 K, x2 = 0.3 | 756.02 | 1314
293.15 K, x2 = 0.4 | 748.67 | 1297
293.15 K, x2 = 0.5 | 740.14 | 1277
293.15 K, x2 = 0.6 | 729.79 | 1254
293.15 K, x2 = 0.7 | 717.46 | 1228
293.15 K, x2 = 0.8 | 702.3 | 1196
293.15 K, x2 = 0.9 | 683.23 | 1151
298.15 K, x2 = 0.1 | 764.7 | 1322
298.15 K, x2 = 0.2 | 758.88 | 1308
298.15 K, x2 = 0.3 | 752.56 | 1295
298.15 K, x2 = 0.4 | 745.03 | 1277
298.15 K, x2 = 0.5 | 736.52 | 1257
298.15 K, x2 = 0.6 | 726.08 | 1234
298.15 K, x2 = 0.7 | 713.68 | 1207
298.15 K, x2 = 0.8 | 698.4 | 1175
298.15 K, x2 = 0.9 | 679.04 | 1129
303.15 K, x2 = 0.1 | 761.25 | 1304
303.15 K, x2 = 0.2 | 755.4 | 1289
303.15 K, x2 = 0.3 | 749.09 | 1275
303.15 K, x2 = 0.4 | 741.49 | 1258
303.15 K, x2 = 0.5 | 732.9 | 1237
303.15 K, x2 = 0.6 | 722.32 | 1215
303.15 K, x2 = 0.7 | 709.86 | 1187
303.15 K, x2 = 0.8 | 694.47 | 1154
303.15 K, x2 = 0.9 | 674.8 | 1108
308.15 K, x2 = 0.1 | 757.78 | 1285
308.15 K, x2 = 0.2 | 751.9 | 1270
308.15 K, x2 = 0.3 | 745.61 | 1256
308.15 K, x2 = 0.4 | 737.93 | 1238
308.15 K, x2 = 0.5 | 729.25 | 1217
308.15 K, x2 = 0.6 | 718.63 | 1195
308.15 K, x2 = 0.7 | 706.03 | 1167
308.15 K, x2 = 0.8 | 690.5 | 1133
308.15 K, x2 = 0.9 | 670.53 | 1086
313.15 K, x2 = 0.1 | 754.31 | 1266
313.15 K, x2 = 0.2 | 748.41 | 1251
313.15 K, x2 = 0.3 | 741.92 | 1237
313.15 K, x2 = 0.4 | 734.37 | 1219
313.15 K, x2 = 0.5 | 725.59 | 1198
313.15 K, x2 = 0.6 | 714.88 | 1175
313.15 K, x2 = 0.7 | 702.18 | 1146
313.15 K, x2 = 0.8 | 686.49 | 1112
313.15 K, x2 = 0.9 | 666.22 | 1065
318.15 K, x2 = 0.1 | 750.84 | 1248
318.15 K, x2 = 0.2 | 744.91 | 1232
318.15 K, x2 = 0.3 | 738.42 | 1219
318.15 K, x2 = 0.4 | 730.8 | 1200
318.15 K, x2 = 0.5 | 721.92 | 1178
318.15 K, x2 = 0.6 | 711.12 | 1156
318.15 K, x2 = 0.7 | 698.3 | 1126
318.15 K, x2 = 0.8 | 682.45 | 1091
318.15 K, x2 = 0.9 | 661.87 | 1044
323.15 K, x2 = 0.1 | 747.36 | 1230
323.15 K, x2 = 0.2 | 741.4 | 1214
323.15 K, x2 = 0.3 | 734.92 | 1200
323.15 K, x2 = 0.4 | 727.21 | 1181
323.15 K, x2 = 0.5 | 718.23 | 1159
323.15 K, x2 = 0.6 | 707.34 | 1136
323.15 K, x2 = 0.7 | 694.38 | 1107
323.15 K, x2 = 0.8 | 678.36 | 1071
323.15 K, x2 = 0.9 | 657.47 | 1023
328.15 K, x2 = 0.1 | 743.88 | 1211
328.15 K, x2 = 0.2 | 737.89 | 1196
328.15 K, x2 = 0.3 | 731.41 | 1182
328.15 K, x2 = 0.4 | 723.62 | 1163
328.15 K, x2 = 0.5 | 714.52 | 1140
328.15 K, x2 = 0.6 | 703.55 | 1117
328.15 K, x2 = 0.7 | 690.44 | 1087
328.15 K, x2 = 0.8 | 674.25 | 1050
328.15 K, x2 = 0.9 | 653.04 | 1002
333.15 K, x2 = 0.1 | 740.37 | 1193
333.15 K, x2 = 0.2 | 734.36 | 1177
333.15 K, x2 = 0.3 | 727.88 | 1163
333.15 K, x2 = 0.4 | 720.01 | 1144
333.15 K, x2 = 0.5 | 710.8 | 1122
333.15 K, x2 = 0.6 | 699.74 | 1098
333.15 K, x2 = 0.7 | 686.47 | 1067
333.15 K, x2 = 0.8 | 670.09 | 1030
333.15 K, x2 = 0.9 | 648.56 | 981
338.15 K, x2 = 0.1 | – | 1176
338.15 K, x2 = 0.2 | – | 1160
338.15 K, x2 = 0.3 | – | 1145
338.15 K, x2 = 0.4 | – | 1126
338.15 K, x2 = 0.5 | – | 1103
338.15 K, x2 = 0.6 | – | 1079
338.15 K, x2 = 0.7 | – | 1048
338.15 K, x2 = 0.8 | – | 1010
338.15 K, x2 = 0.9 | – | 960
343.15 K, x2 = 0.1 | – | 1158
343.15 K, x2 = 0.2 | – | 1142
343.15 K, x2 = 0.3 | – | 1127
343.15 K, x2 = 0.4 | – | 1108
343.15 K, x2 = 0.5 | – | 1084
343.15 K, x2 = 0.6 | – | 1060
343.15 K, x2 = 0.7 | – | 1029
343.15 K, x2 = 0.8 | – | 990
343.15 K, x2 = 0.9 | – | 939
348.15 K, x2 = 0.1 | – | 1140
348.15 K, x2 = 0.2 | – | 1124
348.15 K, x2 = 0.3 | – | 1109
348.15 K, x2 = 0.4 | – | 1089
348.15 K, x2 = 0.5 | – | 1066
348.15 K, x2 = 0.6 | – | 1042
348.15 K, x2 = 0.7 | – | 1010
348.15 K, x2 = 0.8 | – | 971
348.15 K, x2 = 0.9 | – | 918
353.15 K, x2 = 0.1 | – | 1123
353.15 K, x2 = 0.2 | – | 1106
353.15 K, x2 = 0.3 | – | 1092
353.15 K, x2 = 0.4 | – | 1072
353.15 K, x2 = 0.5 | – | 1048
353.15 K, x2 = 0.6 | – | 1023
353.15 K, x2 = 0.7 | – | 991
353.15 K, x2 = 0.8 | – | 951
353.15 K, x2 = 0.9 | – | 898
358.15 K, x2 = 0.1 | – | 1106
358.15 K, x2 = 0.2 | – | 1089
358.15 K, x2 = 0.3 | – | 1074
358.15 K, x2 = 0.4 | – | 1054
358.15 K, x2 = 0.5 | – | 1030
358.15 K, x2 = 0.6 | – | 1005
358.15 K, x2 = 0.7 | – | 972
358.15 K, x2 = 0.8 | – | 932
358.15 K, x2 = 0.9 | – | 877
363.15 K, x2 = 0.1 | – | 1088
363.15 K, x2 = 0.2 | – | 1071
363.15 K, x2 = 0.3 | – | 1057
363.15 K, x2 = 0.4 | – | 1036
363.15 K, x2 = 0.5 | – | 1012
363.15 K, x2 = 0.6 | – | 986
363.15 K, x2 = 0.7 | – | 953
363.15 K, x2 = 0.8 | – | 912
363.15 K, x2 = 0.9 | – | 857
368.15 K, x2 = 0.1 | – | 1072
368.15 K, x2 = 0.2 | – | 1054
368.15 K, x2 = 0.3 | – | 1039
368.15 K, x2 = 0.4 | – | 1019
368.15 K, x2 = 0.5 | – | 995
368.15 K, x2 = 0.6 | – | 968
368.15 K, x2 = 0.7 | – | 935
368.15 K, x2 = 0.8 | – | 893
368.15 K, x2 = 0.9 | – | 837
373.15 K, x2 = 0.1 | – | 1055
373.15 K, x2 = 0.2 | – | 1037
373.15 K, x2 = 0.3 | – | 1022
373.15 K, x2 = 0.4 | – | 1002
373.15 K, x2 = 0.5 | – | 977
373.15 K, x2 = 0.6 | – | 950
373.15 K, x2 = 0.7 | – | 916
373.15 K, x2 = 0.8 | – | 874
373.15 K, x2 = 0.9 | – | 816
